Results published in paper PMC10374545, “A small molecule inhibitor of PTP1B and PTPN2 enhances T cell anti-tumor immunity” (Nature Communications, 2023).
Where “and” joins values, the source holds several entries; their conditions need not be identical. Identical values can stand only once.

Tests used:
[1] = tested on: STAT-1 target genes in AT3-OVA tumors; test: qPCR of STAT-1 target genes in AT3-OVA tumors; format: in vivo, mouse; set-up: key: relative expression by comparative Ct (ΔΔCt), normalized to Rps18 or Gapdh; conditions: tumour gene expression, Lck-Cre;Ptpn2flfl+CMP-182, individual mice (Figure 7F)
Description: For quantitative real-time PCR analysis, RNA from tumors was isolated using RNAzol (Sigma-Aldrich, St. Louis, MO), and RNA quality was assessed using a NanoDrop 2000 (Thermo Fisher Scientific, Waltham MA). mRNA was reverse-transcribed using the High-Capacity cDNA Reverse Transcription Kit (Applied Biosystems, Thermo Fisher Scientific, Waltham, MA) and processed for quantitative Real-Time PCR using the Fast SYBR Green Master Mix (Applied Biosystems, Thermo Fisher Scientific, Waltham MA) and PrimePCR™ SYBR Green Assays (Bio-Rad, Hercules, CA) for Cxcl9 (qMmuCID0023784), Cxcl10 (qMmuCED0049500), Tapbp (qMmuCEP0035035), Tap1 (qMmuCEP0057739), […], H2ab1 (qMmuCIP0029038), Cd274 (qMmuCED0044192), H2k1 (qMmuCEP0034842), Tnf (qMmuCED0004141) and Ifng (qMmuCID0006268). Relative gene expression was determined by normalization to the house-keeping gene Rps18 (qMmuCED0045430) or Gapdh (qMmuCED0027497). Gene quantification was performed with the comparative Ct (ΔΔCt) method.

NK cells = test: NK cell activation (IFN-γ+, CD107A+) by cytokines or α-NK1.1/α-Ly49H; format: cell-based, mouse; conditions: cytokines or crosslinking NK1.1, Ly49H
Description: proliferation in vitro. a-b) NK cells from C57BL/6 male mice (n=3 per group) were expanded […]
µg/ml) or vehicle (1% v/v DMSO) in the absence of IL-15. a) NK cells were re-stimulated for 15 min with the indicated amounts of IL-15 and Y694 phosphorylated STAT-5 (p-STAT-5) mean fluorescence intensities (MFIs) determined by flow cytometry. b) Alternatively, NK cells were stained with carboxyfluorescein succinimidyl ester (CFSE, Invitrogen) and then re-stimulated with the indicated amounts of IL-15 for 96 h and NK cell proliferation (CFSE dilution) monitored by flow cytometry. c-d) NK cells from C57BL/6 male mice (n=3 per group) were expanded ex vivo in the presence of IL-15 and then pre-treated with CMP-182 (0.1 or 1 µg/ml) or vehicle in the absence of IL-15. NK cells were re-stimulated with either IL-12 (10 ng/ml) or IL-18 (100 ng/ml) or with α-NK1.1 or α-Ly49H for 4 h. NK cells were maintained in 10 ng/ml IL-15 throughout the 4 h incubation time. Percentages of c) IFN-γ+ and d) CD107A+ NK cells were determined by flow cytometry. In (a-d) results shown are means ± SEM and are representative of at least two independent experiments.

[2] = Serum liver enzymes AST and ALT; format: in vivo, mouse; set-up: Serum ALT: unit not given here
From the text: CD3ε (BD Biosciences Cat# 553058) and CD28 (BD Biosciences Cat# 557393) antibodies for T cell stimulation and NK1.1 (BD Biosciences Cat# 564143) antibody for NK cell stimulation were purchased from BD Biosciences. Ly49H (clone 3D10, BioLegend Cat# 144702) antibody for NK stimulation was from BioLegend. For analyzing T cell signaling, p-(Y418) SFK (Thermo Fisher Scientific Cat# 14-9034-82) was from Invitrogen and p-(Y694) STAT-5 (D47E7) XP® (Cell Signaling Technology Cat# 4322) was from Cell Signaling. Recombinant human IL-2, recombinant murine IL-7 and recombinant human IL-15 were purchased from the PeproTech, recombinant mouse IL-12 and recombinant human IL-18 were from Australia Biosearch and […] (N4) from Mimotopes. InVivoMAb anti-mouse PD-1 (Bio X Cell Cat# BE0146) and InVivoMAb rat IgG2a isotype control (Bio X Cell Cat# BE0251) were purchased from Bio X Cell. DNase I was from Sigma-Aldrich. Rabbit monoclonal PTP1B (Abcam Cat# ab244207) antibody for flow cytometry was from Abcam and mouse monoclonal PTPN2 6F3 antibody for immunoblotting and flow cytometry was from MédiMabs (Cat# MM-019-P). Mouse anti-actin (Thermo Fisher Scientific Cat# MA5-11866) from Invitrogen and mouse α-tubulin (Sigma-Aldrich Cat# T5168) was from Merck. The mouse anti-nuclear antibodies Ig’s (total IgA+G + M) ELISA Kit was from Alpha Diagnostic Int. and the Transaminase II Kit from Wako Pure Chemicals. FBS was purchased from Thermo Scientific, RPMI 1640, DMEM, MEM, HEPES, non-essential amino acids, penicillin/streptomycin, and sodium-pyruvate were from Invitrogen, collagenase type IV was purchased from Worthington Biochemical and ABBV-CLS-484 was from MedChemExpress (Cat# HY-145923).

PTP1B = target: T1, PTP1B (Homo sapiens, UniProt P18031); test: Mode of inhibition and Ki, Lineweaver-Burk kinetic analysis with DiFMUP; format: biochemical
T1 construct: PTP1B, residues 1-321; made in house; host or cells: E. coli BL21(DE3)
T1 sequence (P18031 1-321): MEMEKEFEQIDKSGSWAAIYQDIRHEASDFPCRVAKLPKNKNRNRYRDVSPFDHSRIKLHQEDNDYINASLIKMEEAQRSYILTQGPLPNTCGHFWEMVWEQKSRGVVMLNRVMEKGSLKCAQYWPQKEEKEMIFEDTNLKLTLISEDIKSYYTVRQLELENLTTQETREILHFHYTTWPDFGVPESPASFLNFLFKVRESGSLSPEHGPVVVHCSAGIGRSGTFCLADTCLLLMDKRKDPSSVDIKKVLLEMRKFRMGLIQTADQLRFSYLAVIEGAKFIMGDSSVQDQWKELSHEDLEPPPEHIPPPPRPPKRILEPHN
Description: To determine the mode of inhibition, the reactions were initiated by the addition of enzyme (final concentration for PTP1B and PTPN2 was 0.05 nM) to the reaction mixtures (0.2 ml) containing various concentrations of DiFMUP with different concentrations of the inhibitor. […] The fluorescence signal was measured using a CLARIOstar Plus Microplate Spectrophotometer (BMG Labtech) using excitation and emission wavelength of 340 nm and 450 nm, respectively. Data were fitted using Prism GraphPad 9.2.0. For selectivity studies, the inhibition assay for other PTPs were performed under the same conditions as used for PTP1B and PTPN2 except with different DiFMUP concentration corresponding to the Km of the PTP studied.

## CC(C)(O)CCOc1ccc2cc(O)c(N3CC(=O)NS3(=O)=O)c(F)c2c1 [Compound 182, 5-(1-Fluoro-3-hydroxy-7-(3-hydroxy-3-methylbutoxy)naphthalen-2-yl)−1,2,5-thiadiazolidin-3-one 1,1-dioxide]
[1]
  H2-Ab1: 1.37 and 2.449 and 1.819 and 1.855 and 0.6743 and 0.4848
  IFNg: 2.663 and 2.871 and 3.337 and 2.746 and 0.6434 and 0.3583
  cd274: 1.409 and 1.249 and 1.434 and 1.371 and 1.147 and 0.5391
  cxcl9: 1.651 and 1.828 and 1.511 and 1.806 and 0.4356 and 0.3111
  cxcl10: 1.078 and 1.3193 and 1.359 and 1.098 and 0.6504 and 0.3928
NK cells
  NK cell activation (IFNγ or CD107A expressing cells): nor did it affect
[2]; 10 mg/kg i.v.
  circulating aspartate aminotransferase (AST): moderately increased
  serum alanine aminotransferase (ALT): unaffected
[2]; Figure 10C, individual mice, listed as CMP-182
  Serum ALT: 680.498 and 1112.03 and 497.925 and 464.73 and 414.938 and 597.51 and 697.095 and 730.29
[2]; Figure 10C, individual mice, listed as CMP-182, in U/L (unit assumed)
  Serum AST: 1826.92 and 3480.77 and 2019.23 and 1211.54 and 1250 and 1519.23 and 2346.15 and 4019.23
[2]; Figure 10C, serum ALT, median, n=8
  GPT, median: 639.0, n=8
[2]; Figure 10C, serum AST, median, n=8
  GOT, median: 1923, n=8
PTP1B
  mode of inhibition: classic competitive inhibitor
